Laboratory results: patent US11707448B2, “Combination therapies for the treatment of cancer” (Eisai R&D Management Co., Ltd., priority 2014, dated 2023)

How the values were obtained:
[1] = system: PAN02 pancreatic tumors; assay: PAN02 pancreatic tumor model, ER-886046 with gemcitabine and radiation; type: in vivo, mice
Description: FIG. 10. […] Antitumor activity of gemcitabine plus local radiation (RT) administered to PAN02 pancreatic tumors in C57BL/6 mice with or without ER-886046. Gemcitabine and RT dosing: a single 40 mg/kg dose of gemcitabine and a single 6 Gy dose of RT, was administered on day 27 post tumor cell injection. ER-8806046 was administered daily in an amount of 150 mg/kg from day 27 post tumor cell injection until the end of the study.
FIG. 11A to FIG. 11B. Additional experiments with combination therapy of ER-886046 and anti-metabolite chemotherapy with radiation compared to anti-metabolite chemotherapy with radiation alone. Panel shown in FIG. 11A) Gemcitabine and RT dosing: a single 40 mg/kg dose of gemcitabine and a single 6 Gy dose of RT, was administered on day 19 post tumor cell injection. ER-8806046 was administered daily in an amount of 150 mg/kg from day 19 post tumor cell injection until the end of the study. Panel shown in FIG. 11B) Gemcitabine and RT dosing: a single 40 mg/kg dose of gemcitabine and a single 6 Gy dose of RT, was administered on day 12 post tumor cell injection. ER-8806046 was administered daily in an amount of 150 mg/kg from day 12 post tumor cell injection until the end of the study. Average tumor sizes of mouse pancreatic PAN02 tumor-bearing mice that received vehicles, ER-886046, gemcitabine (gem) plus radiation (RT), ER-886046 plus RT, or ER-886046 plus gemcitabine and RT at indicated dosages and schedules. A and B represent each independent study. N=8-10 per group. NS, not significant; *, p<0.05; **, p<0.01; ***, p<0.001; and ****, p<0.0001, two-way ANOVA test.
Animal studies; In vitro cultured cancer cells were harvested and suspended in 100 μl of cold HBSS buffer at cell concentrations of 1.0×10^6 cells/ml (CT-26 cells) or of 1.0×10^7 cells/ml (PAN02 cells) and subcutaneously (sc) injected into the mice using a 26 g syringe on day 0. At the dates as indicated in the figures, the mice were randomized based on the tumor size followed by treatments with local radiation alone, gemcitabine alone (intravenous administration), ER-886046 alone (oral administration), or combinations of these treatments. […] The tumor sizes were measured twice a week by a digital caliber (Mitutoyo Corp), and the volume was calculated using the formula (1×w^2)/2=mm^3, where 1 and w refer to the larger and smaller perpendicular dimensions collected at each measurement. Graphs of group tumor sizes (mean±SEM) versus time were plotted using software GraphPad Prism 6 (Lake Forest, Calif.). Two way ANOVA was used for statistical calculation among the groups. N=8-10 in each treatment group.

[2] = system: CT26 tumors; assay: CT26 tumor model, ER-886046 with anti-PDL1 or anti-PD1; type: in vivo, mice
Description: FIG. 9A to FIG. 9B. […] Anti-PDL1 dosing: 200 μg per iv injection on days 9, 12, 15 and 18 post cell implantation as indicated by the arrows; […] Anti-PD1 dosing: 200 μg per iv injection on days 9, 12, 15, 18 and 21 post cell implantation as indicated by the arrows; […] Animal studies; In vitro cultured cancer cells were harvested and suspended in 100 μl of phosphate buffered saline at a cell concentration of 1.0×10^5 cells/ml and subcutaneously (sc) injected into the mice using a 26 g syringe on day 0. […] The animals that were assigned to the treatment groups in individual study had close mean tumor weights in all groups. […] Graphs of group tumor sizes (mean±SEM) and body weights (mean±SEM) versus time were plotted using software GraphPad Prism 6 (Lake Forest, Calif.). Student t-test and Gehan-Breslow-Wilcoxon test were used for statistical analysis.

[3] = system: CT26 cells; assay: Rechallenge of cured (tumor-free) mice with CT26 cells; type: in vivo; settings: mice cured by ER-886046 + radiation
Excerpt: (§1) FIG. 4A to FIG. 4C. Long lasting anti-tumor effect with a memory immune response by ER-886046/radiation treatment. Panel shown in FIG. 4A) Tumor growth in the cured mice by ER-886046 and radiation combination treatment or in the naïve Ba1B/c mice that received injection of CT26 cells. Panel shown in FIG. 4B) Tumor growth of secondarily challenged CT-26 tumors in the cured mice or in naïve mice. Panel shown in FIG. 4C) Growth of 4T1 tumors in cured mice or in naïve mice. N=9-10. Note the complete rejection of challenged CT-26 tumor and reduced growth of challenged 4T1 tumors in the combination cured mice. ***, p<0.001. 2 tailed student t-test. Note that no treatment was applied to any animals.
(§2) In case of tumor rechallenge of tumor-free mice after treatments, CT26 cells and 4T1 cells were individually sc injected into the different flanks of the same mouse, and the growth of each tumor was measured and graphed as described above. Naïve mice that received neither cancer cell injection nor drug treatment were included as controls. […] At the end of study on day 27, the mice in all treatment groups were intranasally administered luciferin and the lungs were resected and analysed for luciferase expression using IVIS instrument. Quantification of the luciferase activity in the lungs was achieved by software Living Image.

[4] = system: 4T1 tumors; assay: Challenge of cured (tumor-free) mice with 4T1 cells; type: in vivo; settings: mice cured by ER-886046 + radiation; vs control (naive) group
Excerpt: as §1, §2

[5] = system: 4T1-luc2 tumors; assay: Spontaneous lung metastasis in 4T1-luc2 breast tumor model; type: in vivo, mice; settings: ER-886046 150 mg/kg po daily days 9-27 + single radiation 9 Gy; day 27
Description: FIG. 6A to FIG. 6B. Anti-pulmonary metastasis activity of ER-886046/radiation in breast 4T1 tumor model. 4T1-luc2 cells were subcutaneously (sc) inoculated into the Ba1B/c mice. When the average size of tumors reached 100 mm^3, the tumors were radiated with a dose of 9 Gy once with or without daily oral administration of ER-886046 at dose of 150 mg/kg. Panel shown in FIG. 6A) At the end of study on day 27, lung metastasis of the animals was analyzed and quantified by luciferase expression. Panel shown in FIG. 6B) Representative IVIS images of each group are shown. Student t-test was used for statistic analysis.
as §2, with “above.” for “above. Naïve mice that received neither cancer cell injection nor drug treatment were included as controls.”
Anti-spontaneous metastatic effect of ER-886046 and radiation combination therapy. […] At day 27, the mice in all treatment groups were intranasally administered luciferin and the lungs were resected and analyzed for luciferase expression.

## C[C@H](NC(=O)c1c(C(F)F)nn(C)c1Oc1cccc(C(F)(F)F)c1)c1ccc(C(=O)O)cc1 [ER-886046]
[1]; ER-886046 150 mg/kg daily + RT 6 Gy, first study (FIG. 10)
  anti-tumor activity, ER-886046 plus RT vs triple combination: no significant difference in the anti-tumor activity
[1]; ER-886046 150 mg/kg daily from day 27 + gemcitabine 40 mg/kg + RT 6 Gy day 27, first study (FIG. 10)
  anti-tumor activity, triple combination: best anti-tumor activity among the treatment groups
[1]; ER-886046 150 mg/kg daily from day 27, first study (FIG. 10)
  anti-tumor activity, ER-886046 alone: more efficacious than RT plus gemcitabine
[1]; triple combination ER-886046 + gemcitabine + RT, day 36 after tumor cell inoculation (FIG. 11B)
  tumor-bearing animals cured: five of eight
[2]; ER-886046 150 mg/kg po daily day 9-19 + anti-PDL1 200 μg
  anti-tumor activity compared to anti-PDL1 alone: better anti-tumor activity
[2]; ER-886046 150 mg/kg po daily day 9-23 + anti-PD1 200 μg
  anti-tumor activity compared to anti-PD1 alone: better anti-tumor activity
[3]; 1.5 months after the first challenge
  tumor growth after secondary CT26 challenge: did not produce detectable tumor
[3]; monitored 1.5 months, no further treatment
  tumor growth after CT26 challenge at another site: did not grow tumors at all
[4]
  growth of 4T1 tumors in cured mice: no rejection of the tumor, but the growth rate was significantly reduced
[5]
  luciferase expression in lungs (lung metastasis): significant reduction
